Organism: Rattus norvegicus
Test: Open TG-GATES - Regimen: Daily Repeat
Type: toxicity, organism-based, Sprague-Dawley
Set-up: regimen Daily Repeat, gender Male, age 6 weeks
Settings: in vivo, iv, route intravenous injection; for APTT / Bas / Eos / Fbg / Hb / Ht / Lym / MCH / MCHC / MCV / Mono / Neu / PT / Plat / RBC / Ret / WBC: tissue Blood; for KIDNEY_L / KIDNEY_R / KIDNEY_TOTAL: tissue Kidney; for LIVER: tissue Liver; for ALP / ALT / AST / BUN / CRE / Ca / Cl / DBIL / GLC / IP / K / LDH / Na / PL / RALB / TBIL / TC / TG / TP / gamma-GTP: tissue Plasma
[1] = 0 mg/kg, 72 h, dose level Control, time 3 day
[2] = 0 mg/kg, […], dose level Control, time 7 day
[3] = 0 mg/kg, […], dose level Control, time 14 day
[4] = 0 mg/kg, […], dose level Control, time 28 day
[5] = 300 mg/kg, 72 h, dose level Low, time 3 day
[6] = 300 mg/kg, […], dose level Low, time 7 day
[7] = 300 mg/kg, […], dose level Low, time 14 day
[8] = 300 mg/kg, […], dose level Low, time 28 day

## CC(=O)OCC1=C(C(=O)O)N2C(=O)[C@@H](NC(=O)Cc3cccs3)[C@H]2SC1 [CEPHALOTHIN]
[1]
  TERMINAL_BW: 230.4 g
  APTT: 21.2 s
  Bas: 0%
  Eos: 0.8%
  Fbg: 292.4 mg/dL
  Hb: 13.4 g/dL
  Ht: 38.5%
  Lym: 82%
  MCH: 21.2 pg
  MCHC: 34.9%
  MCV: 60.8 fL
  Mono: 3.4%
  Neu: 13%
  PT: 16.1 s
  Plat: 120.3 x10_4/uL
  RBC: 633 x10_4/ul
  Ret: 6.8%
  WBC: 100.4 x10_2/uL
  KIDNEY_L: 1 g
  KIDNEY_R: 1 g
  KIDNEY_TOTAL: 2 g
  LIVER: 10.5 g
  ALP: 1655.6 IU/L
  ALT: 38.8 IU/L
  AST: 69.2 IU/L
  BUN: 18 mg/dL
  CRE: 0.2 mg/dL
  Ca: 10.8 mg/dL
  Cl: 105.4 meq/L
  DBIL: 0 mg/dL
  GLC: 185.8 mg/dL
  IP: 6.9 mg/dL
  K: 4.6 meq/L
  LDH: 153.6 IU/L
  Na: 140.8 meq/L
  PL: 147.2 mg/dL
  RALB: 3 g/dL
  TBIL: 0.002 mg/dL
  TC: 79.2 mg/dL
  TG: 108.4 mg/dL
  TP: 5.3 g/dL
  gamma-GTP: 1.6 IU/L
[2]
  TERMINAL_BW: 261.3 g
  APTT: 22.6 s
  Bas: 0%
  Eos: 0.8%
  Fbg: 303 mg/dL
  Hb: 13.2 g/dL
  Ht: 37.9%
  Lym: 78.6%
  MCH: 20.5 pg
  MCHC: 34.8%
  MCV: 59 fL
  Mono: 2.2%
  Neu: 17.8%
  PT: 17 s
  Plat: 139.9 x10_4/uL
  RBC: 642.6 x10_4/ul
  Ret: 5.7%
  WBC: 107.7 x10_2/uL
  KIDNEY_L: 1 g
  KIDNEY_R: 1.1 g
  KIDNEY_TOTAL: 2.1 g
  LIVER: 11.4 g
  ALP: 1413.8 IU/L
  ALT: 35 IU/L
  AST: 71.2 IU/L
  BUN: 18.6 mg/dL
  CRE: 0.2 mg/dL
  Ca: 10.7 mg/dL
  Cl: 107 meq/L
  DBIL: 0 mg/dL
  GLC: 182 mg/dL
  IP: 7 mg/dL
  K: 4.4 meq/L
  LDH: 177.6 IU/L
  Na: 142 meq/L
  PL: 121.8 mg/dL
  RALB: 2.9 g/dL
  TBIL: 0.004 mg/dL
  TC: 64.8 mg/dL
  TG: 87.6 mg/dL
  TP: 5.3 g/dL
  gamma-GTP: 1.8 IU/L
[3]
  TERMINAL_BW: 318.6 g
  APTT: 23.5 s
  Bas: 0%
  Eos: 1%
  Fbg: 268.2 mg/dL
  Hb: 14.2 g/dL
  Ht: 39.3%
  Lym: 76.4%
  MCH: 20.3 pg
  MCHC: 36.1%
  MCV: 56.2 fL
  Mono: 3%
  Neu: 18.8%
  PT: 16.1 s
  Plat: 126.1 x10_4/uL
  RBC: 698.6 x10_4/ul
  Ret: 4.8%
  WBC: 110.4 x10_2/uL
  KIDNEY_L: 1.2 g
  KIDNEY_R: 1.3 g
  KIDNEY_TOTAL: 2.5 g
  LIVER: 12.9 g
  ALP: 1425 IU/L
  ALT: 34.4 IU/L
  AST: 63.4 IU/L
  BUN: 16.8 mg/dL
  CRE: 0.2 mg/dL
  Ca: 10.9 mg/dL
  Cl: 104.4 meq/L
  DBIL: 0 mg/dL
  GLC: 185.8 mg/dL
  IP: 6.9 mg/dL
  K: 4.4 meq/L
  LDH: 119.2 IU/L
  Na: 141.4 meq/L
  PL: 138 mg/dL
  RALB: 3.1 g/dL
  TBIL: 0.01 mg/dL
  TC: 67.8 mg/dL
  TG: 96.8 mg/dL
  TP: 5.8 g/dL
  gamma-GTP: 3.2 IU/L
[4]
  TERMINAL_BW: 376.6 g
  APTT: 26.5 s
  Bas: 0%
  Eos: 1%
  Fbg: 291.4 mg/dL
  Hb: 15.6 g/dL
  Ht: 42.3%
  Lym: 83.6%
  MCH: 19.8 pg
  MCHC: 36.9%
  MCV: 53.6 fL
  Mono: 2.6%
  Neu: 12%
  PT: 16.3 s
  Plat: 108 x10_4/uL
  RBC: 789.2 x10_4/ul
  Ret: 2.4%
  WBC: 108.4 x10_2/uL
  KIDNEY_L: 1.3 g
  KIDNEY_R: 1.3 g
  KIDNEY_TOTAL: 2.5 g
  LIVER: 14.2 g
  ALP: 967 IU/L
  ALT: 31.8 IU/L
  AST: 64.2 IU/L
  BUN: 18.2 mg/dL
  CRE: 0.2 mg/dL
  Ca: 10.4 mg/dL
  Cl: 105.4 meq/L
  DBIL: 0 mg/dL
  GLC: 188.6 mg/dL
  IP: 5.9 mg/dL
  K: 4.3 meq/L
  LDH: 181.6 IU/L
  Na: 142.6 meq/L
  PL: 134.8 mg/dL
  RALB: 3.1 g/dL
  TBIL: 0.004 mg/dL
  TC: 64 mg/dL
  TG: 131 mg/dL
  TP: 6.1 g/dL
  gamma-GTP: 1 IU/L
[5]
  TERMINAL_BW: 226.8 g
  APTT: 22.4 s
  Bas: 0%
  Eos: 1.2%
  Fbg: 291.2 mg/dL
  Hb: 13.4 g/dL
  Ht: 38.4%
  Lym: 84.4%
  MCH: 21.1 pg
  MCHC: 35%
  MCV: 60.2 fL
  Mono: 2.8%
  Neu: 10.6%
  PT: 16.2 s
  Plat: 131.5 x10_4/uL
  RBC: 636.8 x10_4/ul
  Ret: 6%
  WBC: 103.7 x10_2/uL
  KIDNEY_L: 1 g
  KIDNEY_R: 1 g
  KIDNEY_TOTAL: 1.9 g
  LIVER: 10.3 g
  ALP: 1513.6 IU/L
  ALT: 37.8 IU/L
  AST: 68.2 IU/L
  BUN: 15.6 mg/dL
  CRE: 0.1 mg/dL
  Ca: 10.7 mg/dL
  Cl: 106 meq/L
  DBIL: 0 mg/dL
  GLC: 175.4 mg/dL
  IP: 6.1 mg/dL
  K: 4.6 meq/L
  LDH: 166 IU/L
  Na: 140.4 meq/L
  PL: 140 mg/dL
  RALB: 3.1 g/dL
  TBIL: 0.008 mg/dL
  TC: 75.8 mg/dL
  TG: 106.4 mg/dL
  TP: 5.5 g/dL
  gamma-GTP: 1.6 IU/L
[6]
  TERMINAL_BW: 260.2 g
  APTT: 22.5 s
  Bas: 0%
  Eos: 0.8%
  Fbg: 310 mg/dL
  Hb: 13.5 g/dL
  Ht: 38.9%
  Lym: 88.8%
  MCH: 20.8 pg
  MCHC: 34.6%
  MCV: 60.2 fL
  Mono: 1.6%
  Neu: 7.8%
  PT: 16.7 s
  Plat: 122.1 x10_4/uL
  RBC: 647 x10_4/ul
  Ret: 5.6%
  WBC: 91 x10_2/uL
  KIDNEY_L: 1.1 g
  KIDNEY_R: 1.1 g
  KIDNEY_TOTAL: 2.1 g
  LIVER: 11.8 g
  ALP: 1472.6 IU/L
  ALT: 34.4 IU/L
  AST: 68.2 IU/L
  BUN: 17.8 mg/dL
  CRE: 0.2 mg/dL
  Ca: 10.6 mg/dL
  Cl: 106.2 meq/L
  DBIL: 0 mg/dL
  GLC: 174.4 mg/dL
  IP: 7 mg/dL
  K: 4.4 meq/L
  LDH: 178.2 IU/L
  Na: 141.4 meq/L
  PL: 144.6 mg/dL
  RALB: 3 g/dL
  TBIL: 0.004 mg/dL
  TC: 71.2 mg/dL
  TG: 146.8 mg/dL
  TP: 5.5 g/dL
  gamma-GTP: 1.6 IU/L
[7]
  TERMINAL_BW: 304.3 g
  APTT: 24.3 s
  Bas: 0%
  Eos: 1%
  Fbg: 257.6 mg/dL
  Hb: 14.4 g/dL
  Ht: 40.4%
  Lym: 89.8%
  MCH: 20.7 pg
  MCHC: 35.6%
  MCV: 58.2 fL
  Mono: 1.8%
  Neu: 6.8%
  PT: 16.1 s
  Plat: 121.1 x10_4/uL
  RBC: 694 x10_4/ul
  Ret: 4.7%
  WBC: 103.2 x10_2/uL
  KIDNEY_L: 1.2 g
  KIDNEY_R: 1.3 g
  KIDNEY_TOTAL: 2.5 g
  LIVER: 12.3 g
  ALP: 1293.4 IU/L
  ALT: 29.6 IU/L
  AST: 57.8 IU/L
  BUN: 16.8 mg/dL
  CRE: 0.2 mg/dL
  Ca: 10.9 mg/dL
  Cl: 106.2 meq/L
  DBIL: 0 mg/dL
  GLC: 179.4 mg/dL
  IP: 6.9 mg/dL
  K: 4.2 meq/L
  LDH: 109.2 IU/L
  Na: 142.2 meq/L
  PL: 142.6 mg/dL
  RALB: 3.1 g/dL
  TBIL: 0.01 mg/dL
  TC: 75 mg/dL
  TG: 103.4 mg/dL
  TP: 5.7 g/dL
  gamma-GTP: 2 IU/L
[8]
  TERMINAL_BW: 378.7 g
  APTT: 25.4 s
  Bas: 0%
  Eos: 1.6%
  Fbg: 293.8 mg/dL
  Hb: 15.4 g/dL
  Ht: 42.1%
  Lym: 87.4%
  MCH: 19.1 pg
  MCHC: 36.6%
  MCV: 52.3 fL
  Mono: 2.4%
  Neu: 8.2%
  PT: 16.2 s
  Plat: 107.1 x10_4/uL
  RBC: 805.4 x10_4/ul
  Ret: 2.3%
  WBC: 92.3 x10_2/uL
  KIDNEY_L: 1.4 g
  KIDNEY_R: 1.4 g
  KIDNEY_TOTAL: 2.8 g
  LIVER: 14.2 g
  ALP: 1007.4 IU/L
  ALT: 30.4 IU/L
  AST: 58.8 IU/L
  BUN: 16.6 mg/dL
  CRE: 0.2 mg/dL
  Ca: 10.5 mg/dL
  Cl: 106.8 meq/L
  DBIL: 0.004 mg/dL
  GLC: 168.4 mg/dL
  IP: 5.6 mg/dL
  K: 4.1 meq/L
  LDH: 158 IU/L
  Na: 143.2 meq/L
  PL: 134.2 mg/dL
  RALB: 3.1 g/dL
  TBIL: 0.006 mg/dL
  TC: 65.6 mg/dL
  TG: 141.2 mg/dL
  TP: 5.9 g/dL
  gamma-GTP: 1 IU/L

Reference: ChEMBL document CHEMBL3885861, “Open TG-GATES”
